Source: paper PMC11587516 (ACS Chemical Neuroscience, 2024)
Numbering of substitutions follows the chain as printed. Where two headings read alike, the source gives them in different places.

Legend:
[1] = system: normal human astrocytes (NHA); assay: Confocal imaging of astrocyte morphology after incubation in PBS (non-GABA conditions); type: cell-based; details: 500 μM GABA with 500 μM compound 9 in PBS; 72 h
Procedure: To this end, we tested whether blocking the transport of GABA under experimental non-GABA extracellular conditions may impair the homeostasis of these cells. […] Afterward, the cells were stained to visualize actin filaments using confocal microscopy. […] Nevertheless, further kinetic studies are necessary to verify this hypothesis.
NHA was grown on a coverslip in a 35 mm culture dish. After treatment, the cells were fixed (4% paraformaldehyde) and permeabilized (0.1% Triton X-100). Then, the samples were stained with Phalloidin-Atto 565 (Sigma-Aldrich, Inc.) according to the manufacturer’s protocol. Laser confocal microscope Nikon Eclipse Ti-E A1R-Si and Nikon NIS Elements AR software were used for cell imaging.

[2] = system: SH-SY5Y neuroblastoma cells; details: 24 h
Procedure: The model used mimics certain aspects of neurodegenerative diseases, where GABAergic dysfunction and neuronal death are prominent features. […] The neuroprotection studies were performed to determine the ability of compound 9 to prevent MPP^+ (1-methyl-4-phenylpyridinium) toxicity at a concentration of 1 mM, which was coincubated with compound 9 for 24 h. MPP^+ is a well-established neurotoxin that selectively damages neurons, making it a commonly used agent to model aspects of neurodegenerative conditions in vitro. It induces oxidative stress and mitochondrial dysfunction, leading to cell death. Cell viability was detected by a standard MTS assay.
Neuroprotection studies were performed according to the procedure described previously.[27] In brief, SH-SY5Y CRL-2266 (American Type Culture Collection, Manassas, VG) were seeded in microplate at a concentration of 2.5 × 10^4 cells/well in 100 μL of culture medium and cultured for 24 h at 37 °C and 5% CO2. […] Next, MPP^+ was added at a final concentration of 1 mM and the cells were placed in the incubator. After 24 h of the compound coincubation with MPP^+, the CellTiter 96 AQueous Nonradioactive Cell Proliferation Assay (MTS) was performed. The test was purchased from Promega (Madison, WI). The absorbance was measured using a microplate reader EnSpire (PerkinElmer, Waltham, MA) at 490 nm. All results were shown as mean ± SD. The statistical significances were calculated by GraphPad Prism 6.0 software.

hBGT1 = target: T1, hBGT1 (Homo sapiens, UniProt P48065); assay: [3H]GABA uptake assay, CHO cells stably expressing hBGT1; type: cell-based; details: read-out: inhibition of [3H]GABA uptake; screening concentration 100 μM; CHO cells
T1 construct: expressed in transfected cells
T1 sequence (P48065 1-614): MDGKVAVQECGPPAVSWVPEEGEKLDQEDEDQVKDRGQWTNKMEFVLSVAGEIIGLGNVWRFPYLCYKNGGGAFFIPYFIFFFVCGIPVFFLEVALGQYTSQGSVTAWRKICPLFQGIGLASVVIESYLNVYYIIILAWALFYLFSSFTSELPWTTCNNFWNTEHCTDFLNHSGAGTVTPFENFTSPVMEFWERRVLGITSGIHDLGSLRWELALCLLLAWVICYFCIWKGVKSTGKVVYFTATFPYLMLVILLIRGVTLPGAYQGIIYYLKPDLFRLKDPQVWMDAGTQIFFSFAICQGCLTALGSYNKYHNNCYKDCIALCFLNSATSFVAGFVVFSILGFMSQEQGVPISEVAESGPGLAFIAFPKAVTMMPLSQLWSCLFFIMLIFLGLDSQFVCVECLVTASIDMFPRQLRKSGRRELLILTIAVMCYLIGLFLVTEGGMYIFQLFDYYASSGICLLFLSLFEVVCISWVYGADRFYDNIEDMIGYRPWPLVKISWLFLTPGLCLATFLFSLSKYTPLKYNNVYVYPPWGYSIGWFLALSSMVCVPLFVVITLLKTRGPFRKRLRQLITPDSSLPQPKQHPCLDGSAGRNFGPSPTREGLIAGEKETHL
Procedure: All selected compounds were tested for their ability to inhibit human BGT1 (hBGT1) function.
The CHO cells were placed in 96-well plates (approximately 50,000 cells/well) for about 24 h before the experiment. […] After incubation, cells were washed 3 times with 100 μL/well ice-cold assay buffer, 150 μL/well MicroScint20 (PerkinElmer) was subsequently added before the plate was shaken for at least 1 h. The radioactivity of each well of the plate was measured on a TopCount NXT scintillation counter. […] Data presented are the pooled data of at least three independent experiments with three technical replicates if not stated otherwise in figure legends. Concentration–response curves were fitted by nonlinear regression to the sigmoidal concentration–response model with GraphPad Prism v 9.0.

mouse models = details: cited from earlier work
BGT1 = details: cited from earlier work
GABAA receptor = target: GABAA receptor; parameters: method as in PMID 34595152; details: agonist; cited from earlier work
hBGT1 E52A = target: T2, hBGT1 E52A (Homo sapiens, UniProt P48065, E52A); parameters: method as in PMID 34595152; details: ref 12; cited from earlier work
T2 construct: host or cells: tsA201 cells (transformed HEK293), transient expression
T2 sequence (P48065 1-614 E52A): T1 sequence (P48065 1-614) with E52A

[3] = system: SH-SY5Y neuroblastoma cells; assay: SH-SY5Y viability, MTS assay, 72 h; type: cell-based, human; details: 1 µM, reference cytostatic drug
From the text: OC(=O)[C@H]1CNCC[C@@H]1S OC(=O)CCCCCCN1C=CN=C1
OC(=O)C1CCNCC1 N[C@]12C[C@H]1[C@@H](CC2)C(O)=O
OC(=O)C1=CCNCC1 N[C@H]1C[C@@H]1CC(O)=O
O[C@@H]1CNCC[C@H]1C(O)=O N[C@@H]1C[C@@H]1CC(O)=O
OC(=O)CCCC1=NC=CN1 N[C@H]1C[C@H]1CC(O)=O
OC(=O)\C=C\C1=NC=CN1 NC[C@H]1C[C@H]1C(O)=O
OC(=O)\C=C\C1=CNC=N1 NC[C@@H]1C[C@@H]1C(O)=O
OC(=O)\C=C\C1=CN=CN1 NC[C@@H]1C[C@H]1C(O)=O
OC(=O)CCC1=CNC=N1 NC[C@H]1C[C@@H]1C(O)=O
OC(=O)CCC1=CN=CN1 NC1=CC=C(C=N1)C(O)=O
OC(=O)CCN1C=CN=C1 NC1=NC=C(C=N1)C(O)=O
OC(=O)CCCC1=NC=CN1 NC(=N)N1CCC(CC1)C(O)=O
S2. IC50 determination at GAT3 stable GAT3-CHO, compound 9
Figure S1. IC 50 determination for compound 9. Data represent one of three independent experiments, each performed in three technical replicates.
S3. […]
The influence of compound 9 on viability of SH-SY5Y neuroblastoma cells was determined using Aqueous Non-Radioactive Cell Proliferation Assay. […] Upon adding MTS and following 2h incubation, cell viability was calculated and […]
The effect of compound 9 on viability and proliferation of SH-SY5Y was determined with CellTiter 96® Aqueous Non-Radioactive Cell Proliferation Assay (MTS, Promega, Madison, WI, USA). […] Next MTS was added in fresh medium and after 2h of incubation the absorbance was measured at 490 nm using a microplate reader EnSpire (PerkinElmer, Waltham, MA USA). All results were shown as mean ± SD calculated from two independent experiments. […]

NCCCC(=O)O [GABA, γ-Aminobutyric acid, reference compound]
effect on compound 9-induced morphological changes of astrocytes [1]: prevented these changes | cell viability compared to MPP+ alone ([2]; GABA 10 μM, positive control, 1 mM MPP+): significantly increased cell viability

NCc1cc(C(=O)O)[nH]n1 [Compound 11]
inhibition at 100 µM (hBGT1): 26%

Cc1ccsc1C(=CCCN(C)C1CCCc2o[nH]c(=O)c21)c1sccc1C (stereo not drawn) [EF1502]
anticonvulsant properties (mouse models; ref 13): anticonvulsant properties | anticonvulsant effect when coadministered with tiagabine (mouse models; ref 14): synergistic effect

N[C@@]12CC[C@H](C(=O)O)[C@@H]1C2 [bicyclo-GABA, (1S,2S,5R)-5-aminobicyclo[3.1.0]hexane-2-carboxylic acid]
IC50 (BGT1; ref 11): 590 nM | IC50 (BGT1; ref 12): 1500 nM | EC50 (GABAA receptor): 5100 nM | change in activity on substitution of Glu52 with alanine (hBGT1 E52A): drastic increase in activity

COc1cccc2c1C(=O)c1c(O)c3c(c(O)c1C2=O)C[C@@](O)(C(=O)CO)C[C@@H]3O[C@H]1C[C@H](N)[C@H](O)[C@H](C)O1 [doxorubicin, reference compound]
impact on SH-SY5Y viability [3]: significantly decreased SH-SY5Y viability

C[n+]1ccc(-c2ccccc2)cc1 [MPP^+, 1-methyl-4-phenylpyridinium, reference compound]
viability of SH-SY5Y cells ([2]; neurotoxin 1 mM): significantly reduced the viability

O=C(O)CC1CNCCO1 (stereo not drawn) [Compound 3]
inhibition at 100 µM (hBGT1): 40%
